In ChEMBL document CHEMBL1641373, “Trishomocubane as a scaffold for the development of selective dopamine transporter (DAT) ligands” (Bioorg Med Chem Lett, 2011):

Legend:
[1] = biological target: T1, Histamine H1 receptor (Homo sapiens, UniProt P35367); assay: Inhibition of H1 receptor at 10 uM
[2] = biological target: T2, 5-hydroxytryptamine receptor 1A (Homo sapiens) (UniProt P08908); assay: Inhibition of 5HT1A receptor at 10 uM
T2 sequence (whole entry): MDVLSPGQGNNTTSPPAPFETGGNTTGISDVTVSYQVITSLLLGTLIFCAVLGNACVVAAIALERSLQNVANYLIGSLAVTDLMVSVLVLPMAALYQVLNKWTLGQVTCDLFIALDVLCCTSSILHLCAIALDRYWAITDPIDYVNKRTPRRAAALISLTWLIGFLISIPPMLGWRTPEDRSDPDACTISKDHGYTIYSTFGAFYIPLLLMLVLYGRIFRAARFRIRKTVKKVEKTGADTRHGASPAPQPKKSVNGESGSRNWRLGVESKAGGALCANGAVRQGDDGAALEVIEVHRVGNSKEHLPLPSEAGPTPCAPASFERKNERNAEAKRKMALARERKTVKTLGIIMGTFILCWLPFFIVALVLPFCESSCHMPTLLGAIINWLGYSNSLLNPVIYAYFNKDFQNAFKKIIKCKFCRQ

[3] = Displacement of [3H]-ditolyl guanidine from sigma 2 receptor in rat PC12 cells; format: cell-based; settings: pc-12
[4] = biological target: T3, 5-hydroxytryptamine receptor 2B (Homo sapiens, UniProt P41595); assay: Inhibition of 5HT2B receptor at 10 uM
[5] = biological target: T4, Muscarinic acetylcholine receptor M3 (Homo sapiens, UniProt P20309); assay: Inhibition of muscarinic M3 receptor at 10 uM
Target sequence in this assay (P20309 whole entry, looked up): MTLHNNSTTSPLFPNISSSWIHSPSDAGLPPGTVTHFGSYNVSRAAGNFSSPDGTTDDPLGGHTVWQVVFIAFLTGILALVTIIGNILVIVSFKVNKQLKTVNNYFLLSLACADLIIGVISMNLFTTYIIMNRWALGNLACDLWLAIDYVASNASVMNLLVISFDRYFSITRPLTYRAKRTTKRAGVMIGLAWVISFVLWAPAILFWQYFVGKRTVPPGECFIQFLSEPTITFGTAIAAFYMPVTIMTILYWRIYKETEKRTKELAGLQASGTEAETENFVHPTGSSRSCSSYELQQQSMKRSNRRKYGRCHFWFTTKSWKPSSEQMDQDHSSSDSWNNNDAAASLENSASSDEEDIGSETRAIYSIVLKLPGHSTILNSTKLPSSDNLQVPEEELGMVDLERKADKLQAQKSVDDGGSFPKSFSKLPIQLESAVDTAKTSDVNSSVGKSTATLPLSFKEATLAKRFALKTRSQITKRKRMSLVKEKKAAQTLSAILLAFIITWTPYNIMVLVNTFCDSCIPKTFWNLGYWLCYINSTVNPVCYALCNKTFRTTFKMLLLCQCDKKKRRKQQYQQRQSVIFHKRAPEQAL

[6] = biological target: Histamine H4 receptor (Homo sapiens) (UniProt Q9H3N8); assay: Inhibition of H4 receptor at 10 uM
[7] = biological target: 5-hydroxytryptamine receptor 5A (Homo sapiens) (UniProt P47898); assay: Inhibition of 5HT5A receptor at 10 uM
[8] = biological target: T5, Muscarinic acetylcholine receptor M4 (Homo sapiens) (UniProt P08173); assay: Inhibition of muscarinic M4 receptor at 10 uM
T5 sequence (whole entry): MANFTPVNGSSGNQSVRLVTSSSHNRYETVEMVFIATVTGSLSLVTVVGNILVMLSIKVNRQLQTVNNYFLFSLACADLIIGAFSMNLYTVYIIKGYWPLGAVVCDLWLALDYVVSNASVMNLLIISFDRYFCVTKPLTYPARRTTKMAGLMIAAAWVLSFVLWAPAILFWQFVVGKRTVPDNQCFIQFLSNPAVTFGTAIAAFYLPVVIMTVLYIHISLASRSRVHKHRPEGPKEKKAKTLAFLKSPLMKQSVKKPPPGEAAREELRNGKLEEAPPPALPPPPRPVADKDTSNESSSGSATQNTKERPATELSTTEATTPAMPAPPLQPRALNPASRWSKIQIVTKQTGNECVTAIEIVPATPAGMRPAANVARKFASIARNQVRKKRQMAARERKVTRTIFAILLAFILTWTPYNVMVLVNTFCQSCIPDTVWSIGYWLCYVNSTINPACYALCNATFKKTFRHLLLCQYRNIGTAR

[9] = biological target: T6, 5-hydroxytryptamine receptor 2A (Homo sapiens, UniProt P28223); assay: Inhibition of 5HT2A receptor at 10 uM
[10] = biological target: Sodium-dependent noradrenaline transporter (Homo sapiens, UniProt P23975); assay: Displacement of [3H]nisoxetine from human NET expressed in HEK cells; format: cell-based, HEK293; settings: for inhibition: HEK293, concentration not given here
[11] = biological target: T7, D(1B) dopamine receptor (Homo sapiens, UniProt P21918); assay: Inhibition of dopamine D5 receptor at 10 uM
[12] = biological target: Alpha-2C adrenergic receptor (Homo sapiens) (UniProt P18825); assay: Inhibition of Alpha-2C adrenergic receptor at 10 uM
[13] = biological target: D(1A) dopamine receptor (Homo sapiens) (UniProt P21728); assay: Inhibition of dopamine D1 receptor at 10 uM
[14] = biological target: T8, Alpha-2A adrenergic receptor (Homo sapiens) (UniProt P08913); assay: Inhibition of alpha2A adrenergic receptor at 10 uM
T8 sequence (whole entry): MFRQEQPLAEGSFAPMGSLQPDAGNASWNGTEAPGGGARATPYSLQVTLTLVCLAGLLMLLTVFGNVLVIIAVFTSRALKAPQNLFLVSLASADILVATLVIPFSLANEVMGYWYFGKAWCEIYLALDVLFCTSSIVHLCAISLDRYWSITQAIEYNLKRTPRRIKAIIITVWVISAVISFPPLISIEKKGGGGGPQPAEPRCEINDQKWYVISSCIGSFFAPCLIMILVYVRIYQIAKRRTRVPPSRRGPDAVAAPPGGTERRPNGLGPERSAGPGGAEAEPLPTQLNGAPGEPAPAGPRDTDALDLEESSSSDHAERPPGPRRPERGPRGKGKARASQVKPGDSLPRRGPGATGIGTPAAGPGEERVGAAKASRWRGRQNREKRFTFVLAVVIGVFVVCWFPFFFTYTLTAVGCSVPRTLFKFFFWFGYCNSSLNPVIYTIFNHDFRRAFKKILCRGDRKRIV

[15] = biological target: Kappa-type opioid receptor (Homo sapiens) (UniProt P41145); assay: Inhibition of kappa opioid receptor at 10 uM
[16] = biological target: 5-hydroxytryptamine receptor 1E (Homo sapiens) (UniProt P28566); assay: Inhibition of 5HT1E receptor at 10 uM
[17] = biological target: Sigma non-opioid intracellular receptor 1 (Rattus norvegicus, UniProt Q9R0C9); assay: Displacement of (+)-[3H]pentazocine from sigma 1 receptor in rat PC12 cells; format: cell-based, PC-12
[18] = biological target: T6, 5-hydroxytryptamine receptor 2A; assay: Inhibition of 5HT2A receptor
[19] = species: Rattus norvegicus; assay: Inhibition of BZP receptor in rat brain; format: tissue-based; settings: concentration not given here
[20] = biological target: T3, 5-hydroxytryptamine receptor 2B; assay: Inhibition of 5HT2B receptor
[21] = Inhibition of GABAA receptor at 10 uM
[22] = biological target: Alpha-2B adrenergic receptor (Homo sapiens) (UniProt P18089); assay: Inhibition of alpha2B adrenergic receptor at 10 uM
[23] = biological target: Alpha-2C adrenergic receptor (Homo sapiens, UniProt P18825); assay: Inhibition of Alpha-2C adrenergic receptor
[24] = biological target: T7, D(1B) dopamine receptor; assay: Inhibition of dopamine D5 receptor
[25] = biological target: D(3) dopamine receptor (Homo sapiens, UniProt P35462); assay: Inhibition of dopamine D3 receptor at 10 uM
[26] = biological target: Histamine H2 receptor (Homo sapiens, UniProt P25021); assay: Inhibition of H2 receptor at 10 uM
[27] = biological target: T4, Muscarinic acetylcholine receptor M3; assay: Inhibition of muscarinic M3 receptor
Target sequence in this assay (P20309 whole entry): as the sequence (P20309 whole entry, looked up) above

[28] = biological target: Muscarinic acetylcholine receptor M2 (Homo sapiens, UniProt P08172); assay: Inhibition of muscarinic M2 receptor
[29] = biological target: 5-hydroxytryptamine receptor 6 (Homo sapiens, UniProt P50406); assay: Inhibition of 5HT6 receptor
[30] = biological target: Muscarinic acetylcholine receptor M4 (Homo sapiens, UniProt P08173); assay: Inhibition of muscarinic M4 receptor
[31] = biological target: Muscarinic acetylcholine receptor M5 (Homo sapiens, UniProt P08912); assay: Inhibition of muscarinic M5 receptor
[32] = biological target: T1, Histamine H1 receptor; assay: Inhibition of H1 receptor
[33] = biological target: Alpha-2A adrenergic receptor (Homo sapiens, UniProt P08913); assay: Inhibition of alpha2A adrenergic receptor

Chain of Kappa-type opioid receptor (Homo sapiens) (P41145 whole entry): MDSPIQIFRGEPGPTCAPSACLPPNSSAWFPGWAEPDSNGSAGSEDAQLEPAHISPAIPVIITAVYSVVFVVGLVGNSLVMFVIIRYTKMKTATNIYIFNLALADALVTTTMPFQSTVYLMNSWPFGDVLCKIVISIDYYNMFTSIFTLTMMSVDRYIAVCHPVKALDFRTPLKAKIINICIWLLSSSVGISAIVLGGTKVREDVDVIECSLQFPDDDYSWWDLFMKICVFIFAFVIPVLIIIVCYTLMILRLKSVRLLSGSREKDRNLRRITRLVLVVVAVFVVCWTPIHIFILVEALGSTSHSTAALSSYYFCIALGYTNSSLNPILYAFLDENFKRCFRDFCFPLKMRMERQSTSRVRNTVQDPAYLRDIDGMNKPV
Chain of 5-hydroxytryptamine receptor 5A (Homo sapiens) (P47898 whole entry): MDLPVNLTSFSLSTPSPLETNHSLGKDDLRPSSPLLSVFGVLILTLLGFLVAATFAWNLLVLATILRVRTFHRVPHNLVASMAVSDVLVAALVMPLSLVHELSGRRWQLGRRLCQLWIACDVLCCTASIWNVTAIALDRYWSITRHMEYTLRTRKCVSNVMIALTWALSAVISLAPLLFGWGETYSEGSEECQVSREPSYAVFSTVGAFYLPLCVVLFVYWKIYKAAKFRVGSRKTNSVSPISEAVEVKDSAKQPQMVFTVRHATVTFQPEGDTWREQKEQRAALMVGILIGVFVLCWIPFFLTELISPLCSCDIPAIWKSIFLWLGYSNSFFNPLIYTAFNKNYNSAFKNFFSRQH
T3 sequence (P41595 whole entry): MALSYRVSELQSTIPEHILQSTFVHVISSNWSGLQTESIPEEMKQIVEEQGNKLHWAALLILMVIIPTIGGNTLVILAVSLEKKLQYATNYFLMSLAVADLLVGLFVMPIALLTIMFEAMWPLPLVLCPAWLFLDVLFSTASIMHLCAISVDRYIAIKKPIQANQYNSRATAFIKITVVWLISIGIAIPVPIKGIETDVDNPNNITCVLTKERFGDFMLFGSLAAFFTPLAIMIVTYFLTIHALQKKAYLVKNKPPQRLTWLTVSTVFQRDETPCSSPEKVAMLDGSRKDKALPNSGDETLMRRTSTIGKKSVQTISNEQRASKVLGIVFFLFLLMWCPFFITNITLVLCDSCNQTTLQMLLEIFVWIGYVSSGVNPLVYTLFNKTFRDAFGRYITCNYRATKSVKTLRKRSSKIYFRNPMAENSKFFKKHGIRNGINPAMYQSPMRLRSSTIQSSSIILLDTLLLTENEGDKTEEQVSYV
T7 sequence (P21918 whole entry): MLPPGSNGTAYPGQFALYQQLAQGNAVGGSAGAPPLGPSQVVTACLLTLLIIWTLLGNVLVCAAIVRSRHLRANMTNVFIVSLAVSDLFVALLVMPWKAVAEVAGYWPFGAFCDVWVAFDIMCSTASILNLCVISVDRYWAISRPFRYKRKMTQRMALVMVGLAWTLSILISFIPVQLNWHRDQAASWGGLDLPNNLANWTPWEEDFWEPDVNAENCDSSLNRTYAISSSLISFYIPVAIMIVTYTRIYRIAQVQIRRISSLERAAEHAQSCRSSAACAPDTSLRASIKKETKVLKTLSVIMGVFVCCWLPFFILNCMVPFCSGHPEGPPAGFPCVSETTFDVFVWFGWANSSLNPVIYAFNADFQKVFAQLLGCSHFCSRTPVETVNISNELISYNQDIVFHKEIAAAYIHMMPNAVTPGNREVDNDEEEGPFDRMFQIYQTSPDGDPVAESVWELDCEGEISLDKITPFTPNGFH
T6 sequence (P28223 whole entry): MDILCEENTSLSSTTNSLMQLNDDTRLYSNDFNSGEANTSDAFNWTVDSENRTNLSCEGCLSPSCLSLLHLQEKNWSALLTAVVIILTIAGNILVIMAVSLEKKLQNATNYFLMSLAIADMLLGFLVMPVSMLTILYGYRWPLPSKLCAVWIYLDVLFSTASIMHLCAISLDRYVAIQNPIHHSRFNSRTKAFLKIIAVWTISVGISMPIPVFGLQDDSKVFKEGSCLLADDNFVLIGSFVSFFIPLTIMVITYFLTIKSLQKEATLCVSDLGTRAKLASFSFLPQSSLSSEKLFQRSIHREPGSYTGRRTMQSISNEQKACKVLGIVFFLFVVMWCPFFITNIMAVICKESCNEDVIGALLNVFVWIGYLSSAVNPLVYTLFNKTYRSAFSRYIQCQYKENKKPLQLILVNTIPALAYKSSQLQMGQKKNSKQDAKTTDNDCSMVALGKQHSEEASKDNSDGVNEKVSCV
Chain of D(1A) dopamine receptor (Homo sapiens) (P21728 whole entry): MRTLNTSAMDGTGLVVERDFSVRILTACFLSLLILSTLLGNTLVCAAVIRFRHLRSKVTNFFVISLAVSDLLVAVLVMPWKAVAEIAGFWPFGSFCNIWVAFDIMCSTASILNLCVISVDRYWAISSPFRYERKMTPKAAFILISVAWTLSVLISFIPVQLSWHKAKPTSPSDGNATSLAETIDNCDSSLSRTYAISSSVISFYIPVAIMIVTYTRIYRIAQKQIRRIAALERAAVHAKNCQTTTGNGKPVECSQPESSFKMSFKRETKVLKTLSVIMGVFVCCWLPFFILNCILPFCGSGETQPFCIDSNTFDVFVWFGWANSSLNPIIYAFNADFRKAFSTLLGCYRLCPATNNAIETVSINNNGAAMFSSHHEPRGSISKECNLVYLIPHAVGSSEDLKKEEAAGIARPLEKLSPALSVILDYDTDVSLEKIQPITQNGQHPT
Chain of Sigma non-opioid intracellular receptor 1 (Q9R0C9 whole entry): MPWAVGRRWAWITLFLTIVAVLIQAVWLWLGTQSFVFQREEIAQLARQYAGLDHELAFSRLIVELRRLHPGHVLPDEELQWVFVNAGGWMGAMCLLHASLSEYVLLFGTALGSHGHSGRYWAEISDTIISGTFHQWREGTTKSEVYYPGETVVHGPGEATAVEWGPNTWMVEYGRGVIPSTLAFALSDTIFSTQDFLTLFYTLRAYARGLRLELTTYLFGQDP
Chain of Sodium-dependent noradrenaline transporter (P23975 whole entry): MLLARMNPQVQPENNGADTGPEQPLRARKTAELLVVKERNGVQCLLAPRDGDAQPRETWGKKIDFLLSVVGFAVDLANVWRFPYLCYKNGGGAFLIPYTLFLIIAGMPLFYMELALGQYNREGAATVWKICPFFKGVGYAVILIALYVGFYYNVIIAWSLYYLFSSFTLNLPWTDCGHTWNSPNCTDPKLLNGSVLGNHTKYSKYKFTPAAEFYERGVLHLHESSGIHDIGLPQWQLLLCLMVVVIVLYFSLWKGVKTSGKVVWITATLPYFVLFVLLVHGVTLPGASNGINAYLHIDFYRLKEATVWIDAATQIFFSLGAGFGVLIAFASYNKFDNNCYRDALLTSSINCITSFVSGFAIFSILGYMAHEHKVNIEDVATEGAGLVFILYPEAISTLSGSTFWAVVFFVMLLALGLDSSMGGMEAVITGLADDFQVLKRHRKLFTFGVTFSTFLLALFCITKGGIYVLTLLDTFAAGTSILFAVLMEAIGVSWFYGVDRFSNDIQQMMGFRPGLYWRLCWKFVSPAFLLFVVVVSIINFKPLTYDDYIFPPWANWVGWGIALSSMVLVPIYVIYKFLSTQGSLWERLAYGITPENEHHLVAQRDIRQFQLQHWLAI
Chain of Histamine H4 receptor (Homo sapiens) (Q9H3N8 whole entry): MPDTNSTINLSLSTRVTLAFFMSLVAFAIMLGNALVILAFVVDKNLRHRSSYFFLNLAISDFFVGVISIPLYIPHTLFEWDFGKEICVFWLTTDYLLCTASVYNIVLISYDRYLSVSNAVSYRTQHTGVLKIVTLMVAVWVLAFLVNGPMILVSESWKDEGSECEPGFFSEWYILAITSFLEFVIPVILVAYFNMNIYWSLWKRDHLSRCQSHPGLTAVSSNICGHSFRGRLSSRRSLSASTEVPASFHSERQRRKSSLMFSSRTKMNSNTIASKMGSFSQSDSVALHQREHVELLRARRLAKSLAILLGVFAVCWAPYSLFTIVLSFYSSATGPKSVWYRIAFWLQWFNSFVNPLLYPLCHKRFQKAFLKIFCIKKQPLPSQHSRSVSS
Chain of 5-hydroxytryptamine receptor 1E (Homo sapiens) (P28566 whole entry): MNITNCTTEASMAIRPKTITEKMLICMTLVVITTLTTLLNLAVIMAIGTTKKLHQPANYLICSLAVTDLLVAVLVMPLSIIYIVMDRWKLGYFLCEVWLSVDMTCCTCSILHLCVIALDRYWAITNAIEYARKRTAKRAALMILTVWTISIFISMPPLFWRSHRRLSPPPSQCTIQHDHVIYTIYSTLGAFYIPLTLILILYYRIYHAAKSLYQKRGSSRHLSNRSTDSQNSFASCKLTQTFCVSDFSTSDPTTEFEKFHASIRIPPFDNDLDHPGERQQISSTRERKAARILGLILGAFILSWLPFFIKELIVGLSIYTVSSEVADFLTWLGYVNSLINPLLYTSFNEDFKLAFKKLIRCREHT

SMILES	inhibition [2]	Ki [3]	inhibition [4]	inhibition [5]	inhibition [6]	inhibition [7]	inhibition [8]	inhibition [9]	Ki [10]	inhibition [11]	inhibition [12]	inhibition [13]	inhibition [14]	inhibition [15]	inhibition [16]	Ki [17]	Ki [18]	inhibition [19]	Ki [20]	inhibition [21]	further results
Fc1cccc(CN[C@H]2C3C4CC5C6C4CC3C6C52)c1 (stereo not given in full)	< 50%	19 nM	< 50%	< 50%	< 50%	< 50%	< 50%	< 50%	5880 nM	< 50%	< 50%	< 50%	< 50%	< 50%	< 50%	198 nM					inhibition [1]: < 50%
CN(CCc1cccc(F)c1)[C@H]1C2C3CC4C5C3CC2C5C41 (stereo not given in full)	< 50%	39 nM		< 50%	< 50%	< 50%	< 50%					< 50%	< 50%	< 50%	< 50%	1160 nM	> 10000 nM	< 50%	6090 nM	< 50%	inhibition [10]: < 50%; inhibition [22]: < 50%; Ki [23]: 2070 nM
CN(Cc1cccc(F)c1)[C@H]1C2C3CC4C5C3CC2C5C41 (stereo not given in full)	< 50%	117 nM	< 50%	< 50%	< 50%	< 50%	< 50%	< 50%			< 50%	< 50%	< 50%	< 50%	< 50%	1570 nM		< 50%		< 50%	inhibition [10]: < 50%; inhibition [22]: < 50%; Ki [24]: > 10000 nM; inhibition [25]: < 50%; inhibition [26]: < 50%
Fc1cccc(CCN[C@H]2C3C4CC5C6C4CC3C6C52)c1 (stereo not given in full)	< 50%	6 nM			< 50%	< 50%			3620 nM	< 50%		< 50%		< 50%	< 50%	19 nM	6020 nM		6980 nM		Ki [27]: 1390 nM; Ki [28]: 2290 nM; Ki [29]: > 10000 nM; Ki [30]: 705 nM; Ki [31]: 1830 nM; Ki [32]: 2380 nM; Ki [33]: 7610 nM
